pIC50: −log10 of the molar value. Structures can show the parent of a compound that is named as a salt.
Assays:
Details in all cases: LPS (1 μg/mL)-stimulated hPBMCs, 5 hours, ELISA
[1] = tested on: TNF-α; test: TNF-α inhibition in LPS-stimulated human peripheral blood mononuclear cells (primary screening); assay type: cell-based
Experimental: (§1) TNF-α production by lipopolysaccharides (LPS) in hPBMCs was measured according to the method described by Jansky, L. et al (Physiol. Res. 52: 593-598, 2003), incorporated herein by reference. Blood was collected from healthy donors into Potassium EDTA vacutainer tubes (BD vacutainer). The PBMCs were isolated using gradient centrifugation in Histopaque-1077 solution (Sigma). Isolated PBMCs were suspended in RPMI 1640 culture medium (Gibco BRL, Pasley, UK) containing 10% fetal bovine serum (FBS) (Hyclone, Utah, USA), 100 U/ml penicillin (Sigma Chemical Co. St Louis, Mo.) and 100 μg/ml streptomycin (Sigma Chemical Co. St Louis, Mo.). The cell concentration was adjusted to 1×10^6 cells/mL. The viability as determined by trypan blue dye exclusion was uniformly ≧98%. The cell suspension (100 μL) was added to the wells of a 96-well culture plate. Following cell plating, 79 μL of the culture medium and 1 μL of eight different concentrations of the test compounds (final concentration 0.03, 0.1, 0.3, 1, 3, 10, 30, 100 μM) dissolved in DMSO (dimethylsulfoxide, Sigma, Mo., USA) were added to the cells. The final concentration of DMSO was adjusted to 0.5%. The vehicle (0.5% DMSO) was used as control. Rolipram (30, 100 μM) was used as a standard compound. The plates were incubated for 30 min at 37° C. in an atmosphere of 5% CO2. Finally, 20 μL (10 μg/mL) per well of LPS, (Escherchia coli 0127:B8, Sigma Chemical Co., St. Louis, Mo.) was added, for a final concentration of 1 μg/mL. The plates were incubated at 37° C. for 5 hours in an atmosphere of 5% CO2. To assess the cytotoxic effect of the test compounds, the cellular viability test was performed using MTS (3-(4,5-dimethylthiazol-2-yl)-5-(3-carboxymethoxyphenyl)-2-(4-sulfonyl)-2H-tetrazolium) reagent after 5 hours of incubation. Supernatants were harvested and assayed for TNF-α, IL-1β, IL-6 and IL-8 by ELISA as described by the manufacturer. (OptiEIA ELISA sets, BD Biosciences, Pharmingen). The 50% inhibitory concentration (IC50) values were calculated by a nonlinear regression method using GraphPad software (Prism 3.03)

[2] = tested on: IL-1β; test: IL-1β released by LPS-stimulated hPBMCs; assay type: cell-based, Human
Experimental: as §1

[3] = tested on: IL-6; test: IL-6 released by LPS-stimulated hPBMCs; assay type: cell-based, Human
Experimental: as §1

[4] = tested on: IL-8; test: IL-8 released by LPS-stimulated hPBMCs; assay type: cell-based, Human
Experimental: as §1

| SMILES | pIC50 ([1]; Homo sapiens, PBMC) | other results |
| --- | --- | --- |
| COc1cc(CN2CCN(CC3C(=O)O[C@H]4C5=C(C)CCC[C@]5(C)CCC34O)CC2)c(CO)c(OC)c1 (stereo partly drawn) [Compound of example 38, (5aR,9bS)-3a-hydroxy-3-((4-(2-(hydroxymethyl)-3,5-dimethoxybenzyl)piperazin-1-yl)methyl)-5a,9-dimethyl-3,3a,4,5,5a,6,7,8-octahydronaphtho[1,2-b]furan-2(9bH)-one] | 6.10 |  |
| CC1=C2[C@H]3OC(=O)C(CNCC4C(=O)O[C@H]5C6=C(C)CCC[C@]6(C)CCC45O)C3(O)CC[C@]2(C)CCC1 (stereo partly drawn) [Compound of example 55, (5aS,9bR)-3a-Hydroxy-3-((((5aR,9bS)-3a-hydroxy-5a,9-dimethyl-2-oxo-2,3,3a,4,5,5a,6,7,8,9b-decahydronaphtho[1,2-b]furan-3-yl)methylamino)methyl)-5a,9-dimethyl-3,3a,4,5,5a,6,7,8-octahydronaphtho[1,2-b]furan-2(9bH)-one hydrochloride] | 5.92 | pIC50 ([2]; Homo sapiens): 6.51; pIC50 ([3]; Homo sapiens): 5.51; pIC50 ([4]; Homo sapiens): 4.54 |
| CCOC(=O)N1CCN(CC2C(=O)O[C@H]3C4=C(C)CCC[C@]4(C)CCC23O)CC1 (stereo partly drawn) [Compound of example 48, Ethyl 4-(((5aR,9bS)-3a-hydroxy-5a,9-dimethyl-2-oxo-2,3,3a,4,5,5a,6,7,8,9b-decahydronaphtho[1,2-b]furan-3-yl)methyl)piperazine-1-carboxylate hydrochloride] | 6.15 |  |
| CC1=C2[C@@H]3OC(=O)C(CN4CCN(Cc5c(C)cccc5C)CC4)C3(O)CC[C@@]2(C)CCC1 (stereo partly drawn) [Compound of example 30, (5aR,9bS)-3-((4-(2,6-dimethylbenzyl)piperazin-1-yl)methyl)-3a-hydroxy-5a,9-dimethyl-3,3a,4,5,5a,6,7,8-octahydronaphtho[1,2-b]furan-2(9bH)-one] | 6.10 |  |
| CC1=C2[C@@H]3OC(=O)C(CN4CCN(Cc5c(F)cccc5C(F)(F)F)CC4)C3(O)CC[C@@]2(C)CCC1 (stereo partly drawn) [Compound of example 36, (5aR,9bS)-3-((4-(2-fluoro-6-(trifluoromethyl)benzyl)piperazin-1-yl)methyl)-3a-hydroxy-5a,9-dimethyl-3,3a,4,5,5a,6,7,8-octahydronaphtho[1,2-b]furan-2(9bH)-one] | 5.96 |  |
| CC1=C2[C@@H]3OC(=O)C(CN4CCN(c5ccccn5)CC4)C3(O)CC[C@@]2(C)CCC1 (stereo partly drawn) [Compound of example 53, (5aR,9bS)-3a-Hydroxy-5a,9-dimethyl-3-((4-(pyridin-2-yl)piperazin-1-yl)methyl)-3,3a,4,5,5a,6,7,8-octahydronaphtho[1,2-b]furan-2(9bH)-one] | 6.10 |  |
| CC1=C2[C@@H]3OC(=O)C(CN4CC[S+]([O-])CC4)C3(O)CC[C@@]2(C)CCC1 (stereo partly drawn) [Compound of example 25, (5aR,9bS)-3a-Hydroxy-5a,9-dimethyl-3-(thiomorpholino-1-oxide-methyl)-3,3a,4,5,5a,6,7,8-octahydronaphtho[1,2-b]furan-2(9bH)-one] |  | pIC50 [1]: 5.48 |
| COC(=O)CNCC1C(=O)O[C@H]2C3=C(C)CCC[C@]3(C)CCC12O (stereo partly drawn) [Compound of example 58, Methyl 2-(((5aR,9bS)-3a-hydroxy-5a,9-dimethyl-2-oxo-2,3,3a,4,5,5a,6,7,8,9b-decahydronaphtho[1,2-b]furan-3-yl)methylamino)acetate] | 5.70 |  |
| CC12CCCC3(C)OC13C1OC(=O)C(CN3CCCCC3)C1(O)CC2 (centres unmarked) [Compound of example 18, 13-(Piperidin-1-yl)-4,5-epoxy-7-hydroxyeudesm-6,12-olide] |  | pIC50 [2]: 6.70; pIC50 [3]: 6.05; pIC50 [1]: 6.40; pIC50 [4]: 5.04 |

More lines, in order of rising pIC50 ([1]; Homo sapiens, PBMC), values ahead:

| pIC50 ([1]; Homo sapiens, PBMC) | SMILES | other results |
| --- | --- | --- |
| 6.15 | CC1=C2[C@@H]3OC(=O)C(CN4CCCCC4)C3(O)CC[C@@]2(C)CCC1 (stereo partly drawn) [Compound of example 17, (5aR,9bS)-3a-Hydroxy-5a,9-dimethyl-3-(piperidin-1-ylmethyl)-3,3a,4,5,5a,6,7,8-octahydronaphtho[1,2-b]furan-2(9bH)-one] | pIC50 ([2]; Homo sapiens): 6.59; pIC50 ([3]; Homo sapiens): 5.52; pIC50 ([4]; Homo sapiens): 4.56 |
| 6.15 | CC1=C2[C@@H]3OC(=O)C(CN4CCOCC4)C3(O)CC[C@@]2(C)CCC1 (stereo partly drawn) [Compound of example 22, (5aR,9bS)-3a-Hydroxy-5a,9-dimethyl-3-(morpholinomethyl)-3,3a,4,5,5a,6,7,8-octahydronaphtho[1,2-b]furan-2(9bH)-one] |  |
| 6.22 | CC1=C2[C@@H]3OC(=O)C(CN4CCN(CC5C(=O)O[C@H]6C7=C(C)CCC[C@]7(C)CCC56O)CC4)C3(O)CC[C@]2(C)CCC1 (stereo partly drawn) [Compound of example 54, (5aS,9bS)-3a-Hydroxy-3-((4-(((5aR,9bS)-3a-hydroxy-5a,9-dimethyl-2-oxo-2,3,3a,4,5,5a,6,7,8,9b-decahydronaphtho[1,2-b]furan-3-yl)methyl)piperazin-1-yl)methyl)-5a,9-dimethyl-3,3a,4,5,5a,6,7,8-octahydronaphtho[1,2-b]furan-2(9bH)-one] | pIC50 ([2]; Homo sapiens): 6.70; pIC50 ([3]; Homo sapiens): 5.68; pIC50 ([4]; Homo sapiens): 4.93 |
| 6.30 | CC(=O)OCC1(O)C(=O)O[C@H]2C3=C(C)CCC[C@]3(C)CCC21O (stereo partly drawn) [Compound of example 3, ((5aR,9bS)-3,3a-Dihydroxy-5a,9-dimethyl-2-oxo-2,3,3a,4,5,5a,6,7,8,9b-decahydronaphtho[1,2-b]furan-3-yl)methyl acetate] |  |
| 6.40 | CC1=C2[C@@H]3OC(=O)C(CNC4C(O)C(O)C(CO)O[C@H]4O)C3(O)CC[C@@]2(C)CCC1 (stereo partly drawn) [Compound of example 59, (5aR,9bS)-3a-Hydroxy-5a,9-dimethyl-3-(((2R)-2,4,5-trihydroxy-6-(hydroxymethyl)tetrahydro-2H-pyran-3-ylamino)methyl)-3,3a,4,5,5a,6,7,8-octahydronaphtho[1,2-b]furan-2(9bH)-one] |  |
| 6.52 | CC1=C2[C@@H]3OC(=O)C(CN4CCN(Cc5ccccc5F)CC4)C3(O)CC[C@@]2(C)CCC1 (stereo partly drawn) [Compound of example 33, (5aR,9bS)-3-((4-(2-fluorobenzyl)piperazin-1-yl)methyl)-3a-hydroxy-5a,9-dimethyl-3,3a,4,5,5a,6,7,8-octahydronaphtho[1,2-b]furan-2(9bH)-one] |  |
| 6.52 | CC1=C2[C@@H]3OC(=O)C(CN4CCN(Cc5ccccc5)CC4)C3(O)CC[C@@]2(C)CCC1 (stereo partly drawn) [Compound of example 27, (5aR,9bS)-3-((4-Benzylpiperazin-1-yl)methyl)-3a-hydroxy-5a,9-dimethyl-3,3a,4,5,5a,6,7,8-octahydronaphtho[1,2-b]furan-2(9bH)-one] |  |
| 6.70 | CC1=C2[C@@H]3OC(=O)C(CN(C)CC(O)c4ccc(O)cc4)C3(O)CC[C@@]2(C)CCC1 (stereo partly drawn) [Compound of example 60, (5aR,9bS)-3a-Hydroxy-3-(((2-hydroxy-2-(4-hydroxyphenyl)ethyl)(methyl)amino)methyl)-5a,9-dimethyl-3,3a,4,5,5a,6,7,8-octahydronaphtho[1,2-b]furan-2(9bH)-one] |  |

From patent US8981131B2, “Tricyclic compounds for the treatment of inflammatory disorders” (Piramal Enterprises Limited, priority 2007, dated 2015)
